Results taken from ChEMBL document CHEMBL1201862, “PubChem BioAssay data set” (2004).
Values belong to the molecule of their own block, whether it stands above or below them. Activity calls are given as the source filed them.

Tests used:
Aminopeptidase N = target: T1, Aminopeptidase N (Plasmodium falciparum FcB1/Columbia, UniProt O96935); assay: malaria alanyl aminopeptidase activity blockers – biochemical, fluorogenic H-Leu-NHMec substrate, 1536-well (AID 1445); parameters: species or system Plasmodium falciparum 3D7, 3D7
T1 sequence (O96935 whole entry): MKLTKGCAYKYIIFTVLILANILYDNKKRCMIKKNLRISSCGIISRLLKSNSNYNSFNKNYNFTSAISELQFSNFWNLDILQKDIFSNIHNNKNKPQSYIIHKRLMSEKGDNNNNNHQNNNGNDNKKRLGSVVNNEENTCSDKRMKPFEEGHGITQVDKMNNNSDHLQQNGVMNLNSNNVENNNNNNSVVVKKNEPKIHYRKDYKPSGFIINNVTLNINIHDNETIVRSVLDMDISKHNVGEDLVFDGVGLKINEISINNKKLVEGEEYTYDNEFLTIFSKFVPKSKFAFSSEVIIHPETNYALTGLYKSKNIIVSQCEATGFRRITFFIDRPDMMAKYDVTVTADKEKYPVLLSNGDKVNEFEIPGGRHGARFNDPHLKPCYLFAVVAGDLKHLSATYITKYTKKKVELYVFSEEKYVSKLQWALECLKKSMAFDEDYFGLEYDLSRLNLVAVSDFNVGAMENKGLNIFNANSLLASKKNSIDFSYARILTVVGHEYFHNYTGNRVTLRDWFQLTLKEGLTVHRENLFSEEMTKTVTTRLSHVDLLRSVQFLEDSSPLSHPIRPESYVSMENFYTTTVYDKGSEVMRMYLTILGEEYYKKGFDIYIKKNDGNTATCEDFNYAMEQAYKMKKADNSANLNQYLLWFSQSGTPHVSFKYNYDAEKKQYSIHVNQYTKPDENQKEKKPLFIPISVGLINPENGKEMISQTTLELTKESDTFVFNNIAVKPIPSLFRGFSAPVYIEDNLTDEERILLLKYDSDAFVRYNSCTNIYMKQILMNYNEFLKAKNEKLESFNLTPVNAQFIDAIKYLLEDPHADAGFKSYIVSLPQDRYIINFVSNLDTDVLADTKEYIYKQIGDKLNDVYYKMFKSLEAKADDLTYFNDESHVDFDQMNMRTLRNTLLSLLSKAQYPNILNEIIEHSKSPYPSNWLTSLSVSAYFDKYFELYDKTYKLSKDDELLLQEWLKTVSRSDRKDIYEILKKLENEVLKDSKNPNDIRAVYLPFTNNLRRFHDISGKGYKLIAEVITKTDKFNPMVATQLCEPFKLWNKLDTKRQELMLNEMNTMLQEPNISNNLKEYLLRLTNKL

Procathepsin L = Procathepsin L (Homo sapiens, UniProt P07711); assay: CTSL1 protease inhibition – biochemical, QFRET, 1536-well, counter-screen for M1/M17 aminopeptidase inhibitor project, dose response (AID 2214)
Chain of Procathepsin L (P07711 whole entry): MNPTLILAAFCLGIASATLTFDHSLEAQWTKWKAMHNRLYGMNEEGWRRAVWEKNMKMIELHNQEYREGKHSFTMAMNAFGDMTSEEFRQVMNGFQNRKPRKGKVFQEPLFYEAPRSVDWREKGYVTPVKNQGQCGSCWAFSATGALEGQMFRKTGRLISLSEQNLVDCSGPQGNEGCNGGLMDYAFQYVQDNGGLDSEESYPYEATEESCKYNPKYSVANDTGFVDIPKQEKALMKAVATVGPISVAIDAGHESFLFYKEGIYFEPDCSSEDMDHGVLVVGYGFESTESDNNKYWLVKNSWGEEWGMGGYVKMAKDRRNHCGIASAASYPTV

[1] = target: T2, Zinc finger protein mex-5 (Caenorhabditis elegans, UniProt Q9XUB2); assay: potency of MEX-5 RNA-binding blockers – biochemical, C. elegans, fluorescence polarization, dose response (AID 1960)
T2 sequence (Q9XUB2 whole entry): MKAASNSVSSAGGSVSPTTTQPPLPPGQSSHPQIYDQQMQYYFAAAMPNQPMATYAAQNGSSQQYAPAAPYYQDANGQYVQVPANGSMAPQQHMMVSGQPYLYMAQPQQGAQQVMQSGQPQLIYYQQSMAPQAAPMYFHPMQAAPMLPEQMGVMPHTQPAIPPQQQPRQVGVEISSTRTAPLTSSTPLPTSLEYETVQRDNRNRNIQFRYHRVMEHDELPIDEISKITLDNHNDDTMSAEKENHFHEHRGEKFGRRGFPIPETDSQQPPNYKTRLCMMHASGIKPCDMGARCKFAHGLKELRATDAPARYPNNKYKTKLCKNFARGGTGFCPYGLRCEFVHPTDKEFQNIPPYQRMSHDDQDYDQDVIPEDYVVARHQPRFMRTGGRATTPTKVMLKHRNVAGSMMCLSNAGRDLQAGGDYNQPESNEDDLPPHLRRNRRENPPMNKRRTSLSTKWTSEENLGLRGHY

Aspartyl aminopeptidase = Aspartyl aminopeptidase (Plasmodium falciparum 3D7, UniProt Q8I2J3); assay: Counterscreen for inhibitors of M1 and M17 aminopeptidases: QFRET-based biochemical high throughput dose response assay for inhibitors of the Plasmodium falciparum M18 Aspartyl Aminopeptidase (PFM18AAP). [Related PubChem assays: 1619 (Screening assay (M17LAP inhibitors).), 1445 (Screening assay (M1AAP inhibitors).)]
Chain of Aspartyl aminopeptidase (Q8I2J3 whole entry, the tested form may be a part): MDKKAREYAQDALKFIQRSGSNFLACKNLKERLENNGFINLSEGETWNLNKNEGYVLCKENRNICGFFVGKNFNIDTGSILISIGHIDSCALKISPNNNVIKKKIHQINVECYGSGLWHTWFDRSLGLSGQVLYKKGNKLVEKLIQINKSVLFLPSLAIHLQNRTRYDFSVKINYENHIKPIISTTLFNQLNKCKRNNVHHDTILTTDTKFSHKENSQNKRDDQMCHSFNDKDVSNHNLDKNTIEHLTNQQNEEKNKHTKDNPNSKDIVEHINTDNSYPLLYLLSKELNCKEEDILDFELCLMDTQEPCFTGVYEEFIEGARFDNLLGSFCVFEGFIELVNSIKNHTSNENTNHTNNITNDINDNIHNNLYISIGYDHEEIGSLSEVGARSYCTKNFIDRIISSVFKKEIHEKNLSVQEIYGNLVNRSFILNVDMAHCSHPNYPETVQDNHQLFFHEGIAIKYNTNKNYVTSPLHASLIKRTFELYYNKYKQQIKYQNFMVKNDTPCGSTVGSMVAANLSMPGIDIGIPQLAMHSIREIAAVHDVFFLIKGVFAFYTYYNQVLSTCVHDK

[2] = target: T3, RNA-binding protein pos-1 (Caenorhabditis elegans, UniProt G5EF15); assay: disruptors of C. elegans POS-1 RNA interaction – biochemical, fluorescence polarization, dose response (AID 1964);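 also: purified POS-1 fused to maltose binding protein made in E. coli; potency of compounds blocking POS-1 binding to fluorescent RNA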
T3 sequence (G5EF15 whole entry): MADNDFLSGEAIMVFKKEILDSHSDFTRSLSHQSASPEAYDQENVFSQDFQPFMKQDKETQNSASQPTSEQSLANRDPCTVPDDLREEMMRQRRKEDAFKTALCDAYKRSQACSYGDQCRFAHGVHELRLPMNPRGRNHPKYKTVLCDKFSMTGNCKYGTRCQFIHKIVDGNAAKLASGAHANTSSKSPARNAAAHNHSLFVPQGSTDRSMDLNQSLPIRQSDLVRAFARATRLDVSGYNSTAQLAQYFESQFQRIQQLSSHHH

NADPH oxidase 1 [3] = target: T4, NADPH oxidase 1 (Homo sapiens, UniProt Q9Y5S8); assay: Luminescence-based cell-based dose response assay to identify inhibitors of NADPH oxidase 1 (NOX1).; format: functional
T4 sequence (Q9Y5S8 whole entry): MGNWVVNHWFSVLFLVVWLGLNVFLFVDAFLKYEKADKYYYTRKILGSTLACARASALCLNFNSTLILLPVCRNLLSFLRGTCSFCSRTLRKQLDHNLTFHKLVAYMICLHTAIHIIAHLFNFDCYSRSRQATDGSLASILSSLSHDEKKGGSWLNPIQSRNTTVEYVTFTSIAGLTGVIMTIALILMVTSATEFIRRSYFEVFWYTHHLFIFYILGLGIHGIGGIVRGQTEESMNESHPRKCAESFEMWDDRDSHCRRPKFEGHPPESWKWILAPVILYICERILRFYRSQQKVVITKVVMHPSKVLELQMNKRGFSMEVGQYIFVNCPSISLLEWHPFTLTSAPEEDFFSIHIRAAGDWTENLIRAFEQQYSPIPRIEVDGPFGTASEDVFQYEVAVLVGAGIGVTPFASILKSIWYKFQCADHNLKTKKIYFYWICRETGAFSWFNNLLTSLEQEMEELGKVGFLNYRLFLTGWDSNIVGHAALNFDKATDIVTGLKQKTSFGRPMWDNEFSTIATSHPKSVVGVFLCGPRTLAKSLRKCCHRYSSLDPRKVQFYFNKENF

[4] = decrease of insulin promoter-GFP reporter – imaging, high-content screening, mouse beta cells (AID 1628); format: functional; settings: MIN6
[5] = MIN6 cell viability loss – mouse insulinoma, cytotoxicity control, dose response (AID 2122); format: functional;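 also: confirmatory high-throughput counterscreen run to flag cytotoxic compounds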
[6] = target: T5, Rac GTPase-activating protein 1 (Homo sapiens, UniProt Q9H0H5); assay: blockers of MgcRacGAP-driven Rac1 GTP hydrolysis – biochemical, ADP Hunter fluorescence, primary and confirmatory, confirmation (AID 624330); format: functional
T5 sequence (Q9H0H5 whole entry): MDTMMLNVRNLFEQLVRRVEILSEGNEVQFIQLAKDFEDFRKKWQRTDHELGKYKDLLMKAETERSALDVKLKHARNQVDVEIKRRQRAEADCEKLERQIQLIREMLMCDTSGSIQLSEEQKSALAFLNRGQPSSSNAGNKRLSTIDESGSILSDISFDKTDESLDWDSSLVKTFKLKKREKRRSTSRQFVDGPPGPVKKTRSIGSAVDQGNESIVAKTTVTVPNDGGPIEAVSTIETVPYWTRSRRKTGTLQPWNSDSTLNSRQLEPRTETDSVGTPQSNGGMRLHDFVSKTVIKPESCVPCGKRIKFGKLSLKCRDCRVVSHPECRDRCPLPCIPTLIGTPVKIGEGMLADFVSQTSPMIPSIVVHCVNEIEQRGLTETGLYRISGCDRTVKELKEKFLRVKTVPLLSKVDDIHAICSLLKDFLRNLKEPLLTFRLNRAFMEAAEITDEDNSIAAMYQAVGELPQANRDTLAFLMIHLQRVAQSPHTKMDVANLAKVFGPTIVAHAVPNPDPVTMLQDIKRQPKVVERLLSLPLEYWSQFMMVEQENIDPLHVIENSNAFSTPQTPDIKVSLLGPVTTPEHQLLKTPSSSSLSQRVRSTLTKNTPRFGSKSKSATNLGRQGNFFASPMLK

NADPH oxidase 1 [7] = target: T4, NADPH oxidase 1; format: functional, cell-based
HeLa = assay: Cytotoxicity counterscreen assay for transcriptional activators of heat shock protein 70 (Hsp70). [Related pubchem assays: 1203, 1252 ]; format: functional; settings: Homo sapiens;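 also: cells exposed to compound for 16 hours before readout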
Mucolipin-3 = Mucolipin-3 (Homo sapiens, UniProt Q8TDD5); assay: Dose response cell-based high-throughput screening assay for agonists of the transient receptor potential channel ML3 (TRPML3). [Related pubchem assays: 1526, 1424, 1448 ]; format: functional
Chain of Mucolipin-3 (Q8TDD5 whole entry): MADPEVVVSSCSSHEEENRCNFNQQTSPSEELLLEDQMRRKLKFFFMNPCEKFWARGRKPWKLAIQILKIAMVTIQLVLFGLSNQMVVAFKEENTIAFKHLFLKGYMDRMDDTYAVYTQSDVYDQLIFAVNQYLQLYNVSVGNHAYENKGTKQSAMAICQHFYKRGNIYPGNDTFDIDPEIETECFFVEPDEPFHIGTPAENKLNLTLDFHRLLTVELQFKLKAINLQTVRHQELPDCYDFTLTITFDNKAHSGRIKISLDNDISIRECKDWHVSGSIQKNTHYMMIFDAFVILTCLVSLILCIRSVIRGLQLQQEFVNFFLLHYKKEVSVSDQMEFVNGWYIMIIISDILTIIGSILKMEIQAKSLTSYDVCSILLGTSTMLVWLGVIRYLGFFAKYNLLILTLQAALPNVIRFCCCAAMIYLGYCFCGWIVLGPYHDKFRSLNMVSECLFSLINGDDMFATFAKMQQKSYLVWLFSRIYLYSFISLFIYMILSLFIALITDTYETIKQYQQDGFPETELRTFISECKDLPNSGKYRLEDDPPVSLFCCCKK

H9c2 = assay: cells; format: functional, cell-based; settings: Rattus norvegicus, H9c2, Myocardium;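 also: confirmatory concentration-response retest of ultra-high-throughput screening hits for modulation of myocardial damage; cell death induced by hydrogen peroxide oxidative stress; compound pretreatment for 60 min then peroxide exposure for 2 h; potency is for protecting the cells against peroxide damage rather than for killing them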
Ion channel NompC = Ion channel NompC (Danio rerio, UniProt Q7T1G6); assay: Fluorescence counterscreen assay for TRPML3 agonists: dose response cell-based high-throughput screening assay to identify agonists of the transient receptor potential channel N1 (TRPN1). [Related pubchem assays: 1526, 1424, 1448 ]; format: functional
Chain of Ion channel NompC (Q7T1G6 whole entry): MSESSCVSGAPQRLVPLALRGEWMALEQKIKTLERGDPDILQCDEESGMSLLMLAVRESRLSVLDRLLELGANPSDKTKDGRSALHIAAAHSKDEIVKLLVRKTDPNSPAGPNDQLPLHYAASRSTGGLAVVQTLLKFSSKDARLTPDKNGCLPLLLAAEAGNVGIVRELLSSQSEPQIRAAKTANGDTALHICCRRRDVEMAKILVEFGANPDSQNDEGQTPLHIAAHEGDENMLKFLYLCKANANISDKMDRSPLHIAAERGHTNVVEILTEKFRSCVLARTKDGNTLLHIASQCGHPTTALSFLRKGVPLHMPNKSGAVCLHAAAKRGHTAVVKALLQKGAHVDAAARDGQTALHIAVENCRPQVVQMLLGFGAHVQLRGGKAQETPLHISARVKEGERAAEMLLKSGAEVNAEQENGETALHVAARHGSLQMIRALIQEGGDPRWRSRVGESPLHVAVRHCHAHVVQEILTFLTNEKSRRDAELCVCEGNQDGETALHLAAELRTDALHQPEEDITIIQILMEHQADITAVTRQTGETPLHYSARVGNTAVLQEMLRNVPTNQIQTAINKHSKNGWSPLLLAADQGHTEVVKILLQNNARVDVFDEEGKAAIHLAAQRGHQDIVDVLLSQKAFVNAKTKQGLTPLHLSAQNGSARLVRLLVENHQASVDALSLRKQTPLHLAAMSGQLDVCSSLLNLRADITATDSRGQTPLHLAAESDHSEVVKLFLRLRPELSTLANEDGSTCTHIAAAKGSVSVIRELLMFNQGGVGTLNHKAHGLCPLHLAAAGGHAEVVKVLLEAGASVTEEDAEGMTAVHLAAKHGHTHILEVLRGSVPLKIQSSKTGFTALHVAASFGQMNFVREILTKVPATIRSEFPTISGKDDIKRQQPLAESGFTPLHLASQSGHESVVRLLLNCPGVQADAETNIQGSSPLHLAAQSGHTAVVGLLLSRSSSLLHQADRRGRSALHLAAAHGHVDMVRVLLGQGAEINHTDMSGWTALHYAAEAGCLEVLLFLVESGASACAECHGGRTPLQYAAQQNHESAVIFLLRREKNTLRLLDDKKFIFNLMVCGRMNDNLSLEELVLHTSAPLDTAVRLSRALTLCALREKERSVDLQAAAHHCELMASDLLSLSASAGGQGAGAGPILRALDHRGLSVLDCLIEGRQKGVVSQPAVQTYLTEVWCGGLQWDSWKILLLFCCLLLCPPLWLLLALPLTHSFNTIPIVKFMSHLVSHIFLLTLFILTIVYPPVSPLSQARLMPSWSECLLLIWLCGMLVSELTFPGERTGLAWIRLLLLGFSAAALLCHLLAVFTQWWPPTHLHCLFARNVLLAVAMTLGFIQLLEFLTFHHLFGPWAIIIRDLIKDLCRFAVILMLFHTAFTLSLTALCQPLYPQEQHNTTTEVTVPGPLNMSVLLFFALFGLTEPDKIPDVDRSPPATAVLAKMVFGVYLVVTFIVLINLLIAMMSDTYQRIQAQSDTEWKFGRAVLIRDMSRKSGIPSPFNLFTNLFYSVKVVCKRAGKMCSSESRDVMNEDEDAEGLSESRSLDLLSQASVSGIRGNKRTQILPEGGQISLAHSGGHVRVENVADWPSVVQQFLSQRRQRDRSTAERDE

- IC50 (Aminopeptidase N): 4.67 µM (active)
- IC50 (Procathepsin L): > 59.6 µM (not active)
- EC50 [1]: > 300 µM (not active)
- IC50 (Aspartyl aminopeptidase): > 73.5 µM (not active)
- EC50 [2]: > 300 µM (not active)
SMILES: O=C(NCc1cccs1)C1CCN(S(=O)(=O)c2ccc(Br)s2)CC1

SMILES: COc1ccc2c(c1)Sc1ccccc1N2
- IC50 (NADPH oxidase 1 [3]): > 20 µM (not active)
- IC50 [4]: 2.01 µM (active)
- IC50 [5]: 1.63 µM (active)
- IC50 [6]: 28.8 µM (active)
- IC50 (NADPH oxidase 1 [7]): 0.935 µM (active)

SMILES: COc1ccc(C(CNC(=O)c2cc3ccccc3o2)N2CCCCC2)cc1 (centres undefined)
- CC50 (HeLa): > 99 µM (not active)

SMILES: CSc1nsc(SC)c1C(=O)N1CCN(S(=O)(=O)c2ccc(C)cc2)C1C(C)C (centres undefined)
- EC50 (Mucolipin-3): 10.5 µM (not active)
- IC50 (H9c2): > 79 µM (inactive)
- EC50 (Ion channel NompC): > 29.9 µM (not active)
